Assay results reported in patent publication US20170173008A1, “ANTIMICROBIAL AGENTS AND SCREENING METHODS” (PRESIDENT AND FELLOWS OF HARVARD COLLEGE, priority 2014, published 2017).

Key:
[1] = tested on: M. tuberculosis H37Rv; assay: M. tuberculosis H37Rv growth inhibition (Alamar Blue MIC); type: cell-based, Mycobacterium tuberculosis; conditions: three different media
[2] = biological target: T1, DsbB (Escherichia coli, UniProt P0A6M2, C49V/C8A); assay: cell-based; type: cell-based, E. coli; conditions: for EC50 RATIO (EC50 compound 16/EC50): E. coli DHB7935, liquid media
T1 construct: expressed in transfected cells; host or cells: E. coli DHB7935 (HK295 ΔdsbB λatt::malF-lacZ102, φ80::pDSW206dsbBhis6-c-myc)

[3] = biological target: T2, purified EcDsbB (Escherichia coli, UniProt P0A6M2, C49V/C8A); assay: In vitro assay of purified DsbB (ubiquinone reduction); type: biochemical, E. coli; conditions: IC50 (μM), Table 9
T2 construct: made in house; host or cells: E. coli
Description: In addition to the in vivo assays of MICs, we have purified DsbB from E. coli and assessed the concentration dependence for inhibition of the enzyme's activity in oxidizing DsbA.
In this assay, we determine the concentration of a compound necessary to reduce the activity of purified DsbB enzyme by 50%. DsbB uses ubiquinone as a co-factor for the generation of disulfide bonds. DsbB oxidizes DsbA and reduces ubiquinone. When it is in the oxidized state, ubiquinone absorbs strongly at 275 nm but it has a diminished absorbance when it is in the reduced state at the same wavelength. Therefore, DsbB activity can be measured by the reduction of ubiquinone and this is assessed by following the decrease of absorbance of ubiquinone at 275 nm. The assay uses 20 μM purified and DTT-reduced DsbA, 20 uM UbQ-5, and 2 nM purified DsbB at pH6.0.
We tested several compounds for their inhibitory effect on EcDsbB-mediated ubiquinone reduction using purified enzymes. In this assay, reduced DsbA provides the source of electrons that are used by EcDsbB to reduce ubiquinone-5. The compounds show dose-dependent inhibition of EcDsbB with half-maximal inhibitory concentrations (IC50) in the low-μM range.

[4] = biological target: T3, mouse VKORc1 (Mus musculus, UniProt Q9CRC0); assay: Assay for VKOR enzymatic activity in mouse liver microsomes; type: biochemical
T3 construct: Solubilized mouse liver microsomes (20 μL) were added to 180 μL of buffer; from tissue; host or cells: mouse liver (solubilized microsomes)
T3 sequence (Q9CRC0 1-161): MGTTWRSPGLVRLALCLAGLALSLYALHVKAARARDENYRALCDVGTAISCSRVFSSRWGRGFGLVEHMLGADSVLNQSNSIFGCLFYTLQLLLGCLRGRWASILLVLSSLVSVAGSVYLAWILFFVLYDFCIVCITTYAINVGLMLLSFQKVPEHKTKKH

[5] = biological target: T4, Erp57 (Homo sapiens, UniProt P30101); assay: Insulin reductase activity assay, Erp57; type: biochemical
T4 construct: His; purchased AbCam, Cambridge, Mass
T4 sequence (P30101 25-505): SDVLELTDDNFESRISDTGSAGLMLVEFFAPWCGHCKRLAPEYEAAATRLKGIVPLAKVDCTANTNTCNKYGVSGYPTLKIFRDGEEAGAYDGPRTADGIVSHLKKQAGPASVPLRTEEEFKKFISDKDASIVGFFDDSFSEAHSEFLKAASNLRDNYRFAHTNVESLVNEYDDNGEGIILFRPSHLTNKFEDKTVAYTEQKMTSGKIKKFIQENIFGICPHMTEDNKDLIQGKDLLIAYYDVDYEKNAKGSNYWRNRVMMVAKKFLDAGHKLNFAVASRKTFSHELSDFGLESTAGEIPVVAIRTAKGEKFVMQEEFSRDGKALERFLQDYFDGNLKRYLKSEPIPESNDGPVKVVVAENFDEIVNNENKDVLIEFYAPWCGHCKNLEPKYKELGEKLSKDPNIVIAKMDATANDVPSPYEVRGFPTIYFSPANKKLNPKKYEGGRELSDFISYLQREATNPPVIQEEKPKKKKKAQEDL

[6] = biological target: T5, PDI (Homo sapiens, UniProt P07237); assay: Insulin reductase activity assay, PDI; type: biochemical
T5 construct: His; purchased Prospec, East Brunswick, N.J

[7] = biological target: T6, Erp72 (Homo sapiens, UniProt P13667); assay: Insulin reductase activity assay, Erp72; type: biochemical
T6 construct: His; purchased Enzo, Farmingdale, N.Y
T6 sequence (P13667 21-645): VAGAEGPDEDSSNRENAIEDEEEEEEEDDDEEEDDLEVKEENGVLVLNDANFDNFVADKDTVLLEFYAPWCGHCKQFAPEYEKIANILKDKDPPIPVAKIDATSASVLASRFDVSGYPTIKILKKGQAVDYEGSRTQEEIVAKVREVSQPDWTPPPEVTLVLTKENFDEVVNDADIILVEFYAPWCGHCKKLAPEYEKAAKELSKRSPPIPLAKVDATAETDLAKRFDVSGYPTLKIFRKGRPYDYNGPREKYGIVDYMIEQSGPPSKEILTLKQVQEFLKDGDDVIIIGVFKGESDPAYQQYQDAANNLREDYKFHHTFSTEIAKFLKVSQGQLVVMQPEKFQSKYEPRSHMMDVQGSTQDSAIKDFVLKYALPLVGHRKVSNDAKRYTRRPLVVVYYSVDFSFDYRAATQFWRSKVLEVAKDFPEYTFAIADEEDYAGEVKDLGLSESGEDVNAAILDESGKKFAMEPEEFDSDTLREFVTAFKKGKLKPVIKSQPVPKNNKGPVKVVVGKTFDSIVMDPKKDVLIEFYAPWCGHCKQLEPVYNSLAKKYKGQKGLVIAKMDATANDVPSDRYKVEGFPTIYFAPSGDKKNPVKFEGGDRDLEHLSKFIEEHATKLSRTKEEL

[8] = biological target: T7, Erp5 (Homo sapiens, UniProt Q15084); assay: Insulin reductase activity assay, Erp5; type: biochemical
T7 construct: His; Passam F., Furie B., Furie B.C; (persons named as the source, not a vendor)
T7 sequence (Q15084 20-440): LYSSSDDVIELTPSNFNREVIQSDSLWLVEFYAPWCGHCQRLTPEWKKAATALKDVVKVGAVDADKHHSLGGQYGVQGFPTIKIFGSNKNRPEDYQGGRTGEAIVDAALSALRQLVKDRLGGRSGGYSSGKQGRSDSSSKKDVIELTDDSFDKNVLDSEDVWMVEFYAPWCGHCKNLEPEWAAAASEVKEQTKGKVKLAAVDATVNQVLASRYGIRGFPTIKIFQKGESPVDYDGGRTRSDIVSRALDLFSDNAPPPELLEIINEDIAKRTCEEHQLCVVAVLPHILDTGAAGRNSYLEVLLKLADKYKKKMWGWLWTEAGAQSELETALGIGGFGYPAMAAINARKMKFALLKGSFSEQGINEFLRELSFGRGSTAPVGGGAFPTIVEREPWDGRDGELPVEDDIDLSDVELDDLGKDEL

[9] = biological target: E. coli DsbB (Escherichia coli, UniProt P0A6M2); assay: Blue/white beta-galactosidase agar assay, DsbB-based E. coli strain; type: cell-based; conditions: agar assay
[10] = biological target: T8, VKOR of M. tuberculosis (Mycobacterium tuberculosis, UniProt I6X5W1); type: cell-based; conditions: agar assay
T8 sequence (I6X5W1 1-210): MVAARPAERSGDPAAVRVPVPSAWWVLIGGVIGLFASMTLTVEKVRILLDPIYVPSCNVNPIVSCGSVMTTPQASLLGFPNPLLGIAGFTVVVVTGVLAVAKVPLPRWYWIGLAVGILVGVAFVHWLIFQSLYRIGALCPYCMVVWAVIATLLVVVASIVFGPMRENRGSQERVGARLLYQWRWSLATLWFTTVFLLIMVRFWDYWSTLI

T1 sequence (P0A6M2 whole entry C8A/C49V): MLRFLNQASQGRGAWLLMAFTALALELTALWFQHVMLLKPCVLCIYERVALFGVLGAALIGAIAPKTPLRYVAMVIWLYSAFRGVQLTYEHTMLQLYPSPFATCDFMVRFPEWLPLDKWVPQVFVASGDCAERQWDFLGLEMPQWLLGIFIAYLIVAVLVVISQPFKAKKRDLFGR
T2 sequence (P0A6M2 whole entry C8A/C49V): as above
E. coli DsbB, sequence (P0A6M2 whole entry): as the sequence (P0A6M2 whole entry C8A/C49V) above, with A8C, V49C counted along it
T5 sequence (P07237 18-508, species assumed): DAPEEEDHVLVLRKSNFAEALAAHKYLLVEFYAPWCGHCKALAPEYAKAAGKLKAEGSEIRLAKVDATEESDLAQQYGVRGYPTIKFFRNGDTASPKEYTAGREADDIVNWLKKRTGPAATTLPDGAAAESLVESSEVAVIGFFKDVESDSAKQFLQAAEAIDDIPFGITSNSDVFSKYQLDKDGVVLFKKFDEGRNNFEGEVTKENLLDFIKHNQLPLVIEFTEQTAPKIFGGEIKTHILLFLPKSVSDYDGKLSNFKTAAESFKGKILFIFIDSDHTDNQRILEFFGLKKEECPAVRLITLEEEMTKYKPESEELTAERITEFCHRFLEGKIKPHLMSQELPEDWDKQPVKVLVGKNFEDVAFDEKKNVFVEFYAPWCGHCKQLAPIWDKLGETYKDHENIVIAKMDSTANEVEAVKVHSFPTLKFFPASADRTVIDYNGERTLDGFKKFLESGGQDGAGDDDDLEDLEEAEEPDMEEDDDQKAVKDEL

Compound | EC50 [2] | other results
Cc1oncc1C(=O)Nc1ccccc1 [Compound 4] |  | effect on growth of M. tuberculosis (in words) [1]: no effects
O=c1c(Br)c(Br)cnn1Cc1ccccc1 [Compound 16.17] | 13.2 µM | 
O=c1c(Cl)c(Cl)cnn1Cc1ncccc1Cl [Compound 16.40, 4,5-dichloro-2-((3-chloropyridin-2-yl)methyl)pyridazin-3(2H)-one] | 10.8 µM | 
COc1cccc(Cn2ncc(Cl)c(Cl)c2=O)c1 [Compound 16.11] | 232 µM | 
O=c1c(Cl)c(Cl)cnn1Cc1ccccc1F [Compound 16.23] | 3.09 µM | EC50 RATIO (EC50 compound 16/EC50) [2]: 1.65
O=c1c(N2CCCC2)c(Cl)cnn1-c1ccccc1 [Compound 15] | 28.1 µM | IC50 [3]: 8.24 µM
O=c1c(Cl)c(Cl)cnn1Cc1cccs1 [Compound 16.41, 4,5-dichloro-2-(thiophen-2-ylmethyl)pyridazin-3(2H)-one] | 33.1 µM | 
O=c1c(Cl)c(Br)cnn1Cc1ccccc1Cl [Compound 16.44, 5-bromo-4-chloro-2-(2-chlorobenzyl)pyridazin-3(2H)-one] | 0.32 µM | 
O=c1c(Cl)c(Cl)cnn1-c1ccccc1 [Compound 16.2] | 2.04 µM | IC50 [3]: 2.34 µM; fold more inhibitory than compound 16 [2]: 10 fold; EC50 RATIO (EC50 compound 16/EC50) [2]: 2.49
CNC(=O)C#CCC1C(=O)c2ccccc2C1=O [Compound 1] |  | inhibition of VKOR activity [4]: inhibited; inhibition of Erp57 activity [5]: inhibited; effect on growth of M. tuberculosis (in words) [1]: relatively strong effect in only one of the three media; inhibition of PDI activity [6]: inhibited; inhibition of Erp72 activity [7]: inhibited; inhibition of Erp5 activity [8]: inhibited
O=C1c2ccccc2C(=O)C1c1ccc(Br)cc1 [brominedione, reference compound] |  | inhibition of the DsbB-based strain, in words [9]: not of the DsbB-based strain; inhibition in the VKOR screen (MtbVKOR-based strain), in words [10]: strong inhibitor
O=c1c(Cl)c(Cl)cnn1Cc1sccc1Cl [Compound 16.42, 4,5-dichloro-2-((3-chlorothiophen-2-yl)methyl)pyridazin-3(2H)-one] | 1.45 µM | 
CCOc1c(Cl)cnn(-c2ccccc2)c1=O [Compound 14] | 25.6 µM | IC50 [3]: 6.57 µM
Cc1nnc(-c2cccc(C)c2C)c(C)n1 [Compound 8] |  | effect on growth of M. tuberculosis (in words) [1]: no effects
CCCCNc1c(Cl)cnn(-c2ccccc2)c1=O [Compound 13] | 30.4 µM | IC50 [3]: 8.12 µM
O=c1c(Cl)c(Cl)cnn1-c1ccccc1Cl [Compound 16.20] | 1.34 µM | EC50 RATIO (EC50 compound 16/EC50) [2]: 3.80
Cc1cccc(Cn2ncc(Cl)c(Cl)c2=O)c1 [Compound 16.4] | 13.9 µM | IC50 [3]: 1.27 µM; EC50 RATIO (EC50 compound 16/EC50) [2]: 0.37

Compound | EC50 [2] | other results
O=c1c(Cl)c(Cl)cnn1Cc1ccccc1C(F)(F)F [Compound 16.35, 4,5-dichloro-2-(2-(trifluoromethyl)benzyl)pyridazin-3(2H)-one] | 2.81 µM | 
COC(C)(C)C#CC(=O)c1cccc2ccccc12 [Compound 23] |  | inhibition of the DsbB-based strain, in words [9]: weak inhibitor; effect on growth of M. tuberculosis (in words) [1]: inhibitor of M. tuberculosis growth
O=c1c(Cl)c(Cl)cnn1Cc1ccc([N+](=O)[O-])cc1 [Compound 16.8] | 38.7 µM | 
O=c1c(Cl)c(Cl)cnn1Cc1ccccc1Br [Compound 16.12] | 0.47 µM | fold more inhibitory than compound 16 [2]: 10 fold; EC50 RATIO (EC50 compound 16/EC50) [2]: 10.77
N#Cc1cccc(Cn2ncc(Cl)c(Cl)c2=O)c1 [Compound 16.9] | 509 µM | 
N#Cc1ccccc1Cn1ncc(Cl)c(Cl)c1=O [Compound 16.14] | 13.2 µM | EC50 RATIO (EC50 compound 16/EC50) [2]: 0.39
Cc1c(Cl)cnn(Cc2ccccc2Cl)c1=O [Compound 16.26, 5-chloro-2-(2-chlorobenzyl)-4-methylpyridazin-3(2H)-one] | 18.7 µM | 
O=c1c(Cl)c(Cl)cnn1Cc1c(F)cccc1Cl [Compound 16.22] | 18.1 µM | 
COc1c(Cl)cnn(-c2cccc(C)c2)c1=O [Compound 17] | 72.8 µM | IC50 [3]: 5.42 µM
Cc1ccccc1Cn1ncc(Cl)c(Cl)c1=O [Compound 16.13] | 3.56 µM | EC50 RATIO (EC50 compound 16/EC50) [2]: 1.43
O=c1c(Br)c(Br)cnn1Cc1ccccc1Cl [Compound 16.27, 4,5-dibromo-2-(2-chlorobenzyl)pyridazin-3(2H)-one] | 0.025 µM | 
O=c1c(Cl)c(Cl)cnn1Cc1ccncc1Cl [Compound 16.39] | 15.2 µM | 
O=c1c(Br)c(Cl)cnn1Cc1ccccc1Cl [Compound 16.43, 4-bromo-5-chloro-2-(2-chlorobenzyl)pyridazin-3(2H)-one] | 0.29 µM | 
O=c1c(Cl)c(Cl)cnn1-c1ccccc1F [Compound 16.24] | 13.7 µM | EC50 RATIO (EC50 compound 16/EC50) [2]: 0.73
O=c1c(Cl)c(Cl)cnn1Cc1ccccc1OC(F)(F)F [Compound 16.36, 4,5-dichloro-2-(2-(trifluoromethoxy)benzyl)pyridazin-3(2)-one] | 7.12 µM | 
O=c1c(Cl)c(Cl)cnn1Cc1c(Cl)cccc1Cl [Compound 16.37, 4,5-dichloro-2-(2,6-dichlorobenzyl)pyridazin-3(2H)-one] | 6570 µM | 
O=c1cc(Cl)cnn1Cc1ccccc1Cl [Compound 16.25, 5-chloro-2-(2-chlorobenzyl)pyridazin-3(2H)-one] | 8.37 µM | 
